Patent publication EP3797781A1, “USE OF EC-7072 AND SYNERGIC COMPOSITIONS THEREOF IN TREATMENT OF CHRONIC LYMPHOCYTIC LEUKEMIA” (priority 2019, dated 2021)

What was measured:
[1] = system: active caspase-3; assay: Caspase-3 activity assay in leukemia cells (flow cytometry); format: cell-based, human; settings: 0 - 400 nM, 24 hours; leukemia cells in PBMCs from patients with CLL (n = 6)
Protocol: Intracellular levels of activated caspase-3 were measured by using CaspGLOW™ Fluorescein Active Caspase-3 Staining Kit (Invitrogen). In brief, EC-7072 (200 nM) or DMSO-treated PBMCs from patients with CLL were incubated with FITC-DEVD-fmk for 30 minutes at 37 °c and fluorescence was next analyzed by flow cytometry in leukemia cells. For some experiments, cells were pretreated for 2 hours with the indicated doses of the broad-spectrum caspase inhibitor Z-VAD-fmk.
The induction of caspase-dependent apoptosis on primary CLL cells by EC-7072 was assessed by: • (i) incubating PBMCs isolated from patients with CLL (n = 6) following treatment with increasing concentrations of EC-7072 (0 - 400 nM) for 24 hours. Apoptosis of leukemia cells was evaluated by cytofluorometric assessment of Annexin V/PI staining to obtain percentages of apoptotic [Annexin V^+ PI^-] and dead [PI^+] cells (Figure 3A); • (ii) incubating PBMCs and T cells isolated from patients with CLL (n = 3) following treatment with EC-7072 (200 nM) for 24 hours. T cell apoptosis was evaluated by cytofluorometric assessment of Annexin V/PI staining to obtain percentages of viable [Annexin V-], apoptotic [Annexin V^+ PI^-] and dead [PI^+] cells (Figure 3B); • (iii) incubating PBMCs isolated from patients with CLL (n = 6) following treatment with EC-7072 (0 - 400 nM) for 24 hours. […]

[2] = system: MEC-1, GRANTA-519, Z-138, JVM-2, CA-46, Ramos, Raji and U266 cell lines; assay: Viability of B-cell malignancy cell lines by DiOC6(3)/PI staining; format: cell-based; settings: 500 nM, 24 hours; n = 3; Figure 5C
Protocol: Cell viability and apoptosis were evaluated by double-staining with the mitochondrial inner transmembrane potential (ΔΨm)-sensitive dye DiOC6(3) (3,3'-dihexyloxacarbocyanine iodide; Sigma-Aldrich) and the exclusion dye propidium iodide (PI; Immunostep), allowing identification of apoptotic [DiOC6(3)^low PI^-] and dead [PI^+] cells as per Proc. Natl. Acad. Sci. U.S.A. (2014) 111(8):3020-3025 and Methods Mol. Biol. (2016) 1419:1-16. Briefly, PBMCs were resuspended in culture medium containing 20 nM DiOC6(3) and incubated for 30 minutes at 37 °C. Then, PI (1 µg/mL) was added and cells were further incubated for 10 minutes at room temperature (RT). Cells were analyzed by flow cytometry considering DiOC6(3)^+PI^- cells as viable. In some experiments, apoptosis was evaluated by staining with Annexin V/PI. […]
Effectiveness of EC-7072 against different B-cell malignancies was assessed by; • (i) incubating primary fibroblasts from healthy donors (n = 4) and HK-2 cells from healthy human adult kidney (n = 3) following treatment with MTA (200 nM) or EC-7072 (200 nM) for 24 hours. […] Cell viability was assessed by DiOC6(3)/PI staining and normalized to control (DMSO) condition to obtain mean percentage of viable [DiOC6(3)^+] cells (Figure 5C).

CO[C@@H]([C@@H]1Cc2cc3cc(O[C@H]4C[C@@H](O[C@H]5C[C@@H](O)[C@H](O)[C@@H](C)O5)[C@H](O)[C@@H](C)O4)c(C)c(O)c3c(O)c2C(=O)[C@H]1O[C@H]1C[C@@H](O[C@H]2C[C@@H](O[C@H]3C[C@](C)(O)[C@H](O)[C@@H](C)O3)[C@@H](O)[C@@H](C)O2)[C@H](O)[C@@H](C)O1)[C@@H](O)C(C)=O [EC-7072, mithramycin SK]
intracellular levels of active caspase-3 [1]: dose-dependent increase | surviving cell fraction of tumor cell lines derived from B-cell hematologic malignancies [2]: significantly reduced the surviving cell fraction
